We go through 21 molecules from patent publication US12606541B2, “PPARg modulators and methods of use” (Eisai R&D Management Co., Ltd., priority 2020, dated 2026).

In assay [1] the target is T1, His6-TEV-PPARγ-(234-505) (Homo sapiens, UniProt P37231).
T1 construct: The His6-TEV-PPARγ-(234-505) protein for assay was expressed and purified; TEV cleavage site (N); made in house
T1 sequence (P37231 234-505): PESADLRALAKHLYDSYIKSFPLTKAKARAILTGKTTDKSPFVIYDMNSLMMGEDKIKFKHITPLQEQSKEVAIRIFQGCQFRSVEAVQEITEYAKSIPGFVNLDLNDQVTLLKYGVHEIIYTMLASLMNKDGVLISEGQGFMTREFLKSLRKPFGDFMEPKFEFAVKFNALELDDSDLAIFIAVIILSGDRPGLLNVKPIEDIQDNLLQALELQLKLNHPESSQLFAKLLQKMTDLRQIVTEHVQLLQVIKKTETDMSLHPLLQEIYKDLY
The assay is described as follows: TR-FRET Assay to Measure Co-R Peptide Recruitment to PPARγ. It is filed as biochemical. The conditions noted are these: Co-R peptide (SMRT-ID2) recruitment, top final concentration 20 μM, read-out: TR-FRET i-Ag, AC50. The method in brief: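 His-tagged PPARγ (or controls) was preincubated with compound for 20 minutes at room temperature, then 5 nM anti-His terbium antibody and 200 nM FITC-labeled SMRT-ID2 corepressor peptide (final) were added for a further hour. TR-FRET signal was normalized to percent response using 500 nM T0070907 and DMSO controls.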

In assay [2] the test system is UM-UC-9 engineered cells. The assay is described as follows: Cell proliferation / short-term viability assay, CellTiter-Glo 144 h. It is filed as cell-based, human. The conditions noted are these: read-out: CTGlo 144 h UMUC9.5, G150. The essentials: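 UM-UC-9 engineered assay-ready cells seeded at 500 cells/well in high-glucose DMEM/10% FBS, treated from dose-response plates, grown at 37° C, 5% CO2. CellTiter-Glo 2.0 luminescence read on day 7, with a day-0 pretreatment plate as T0 reference and DMSO wells as negative control.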
(Cellular ATP, detected with luciferase, serves as a proxy for viable cell number.)

Like-named read-outs stand apart in the source and are kept apart here.

On to `COc1cc(-c2cc(C(=O)N3CC[C@H](C(=O)NCc4ncc(N5C[C@H]6C[C@@H]5CN6)cn4)CC34CC4)[nH]n2)c(F)cn1` (mixture of isomers) [Example 467, (S)—N-((5-((1R,4R)-2,5-diazabicyclo[2.2.1]heptan-2-yl)pyrimidin-2-yl)methyl)-4-(3-(5-fluoro-2-methoxypyridin-4-yl)-1H-pyrazole-5-carbonyl)-4-azaspiro[2.5]octane-7-carboxamide and (S)—N-((5-((1S,4S)-2,5-diazabicyclo[2.2.1]heptan-2-yl)pyrimidin-2-yl)methyl)-4-(3-(5-fluoro-2-methoxypyridin-4-yl)-1H-pyrazole-5-carbonyl)-4-azaspiro[2.5]octane-7-carboxamide], for which the AC50 in assay [1] was 951 nM. In addition, in assay [2] (Homo sapiens, UM-UC-9, 144 h), the IC50 was more than 10000 nM.
In the case of `COc1cc(-c2cc(C(=O)N3CCC(C(=O)NCC4CCc5nccn5C4)CC34CC4)n[nH]2)c(F)cn1` (mixture of isomers) [Example 356, (S)-4-(5-(5-fluoro-2-methoxypyridin-4-yl)-1H-pyrazole-3-carbonyl)-N—(((S)-5,6,7,8-tetrahydroimidazo[1,2-a]pyridin-6-yl)methyl)-4-azaspiro[2.5]octane-7-carboxamide and (S)-4-(5-(5-fluoro-2-methoxypyridin-4-yl)-1H-pyrazole-3-carbonyl)-N—(((R)-5,6,7,8-tetrahydroimidazo[1,2-a]pyridin-6-yl)methyl)-4-azaspiro[2.5]octane-7-carboxamide], the AC50 in assay [1] turned out to be 113 nM. For the same molecule, the IC50 in assay [2] is 4790 nM.
As for `COc1cc(-c2cc(C(=O)N3CCC(C(=O)NCc4ncoc4C(F)(F)F)CC3)n[nH]2)c(Cl)cn1` [Example 221, 1-(5-(5-chloro-2-methoxypyridin-4-yl)-1H-pyrazole-3-carbonyl)-N-((5-(trifluoromethyl)oxazol-4-yl)methyl)piperidine-4-carboxamide], the AC50 in assay [1] was found to be 279 nM. Also, in assay [2] (Homo sapiens, UM-UC-9, 144 h), the IC50 was found to be 1730 nM.
The matching figures for `CCC1CCC(NC(=O)C2CCN(C(=O)c3cc(-c4ccnc(OC)c4)[nH]n3)CC2)CC1` (racemic) [Example 108, N-(4-ethylcyclohexyl)-1-(5-(2-methoxypyridin-4-yl)-1H-pyrazole-3-carbonyl)piperidine-4-carboxamide]: 178 nM and 830 nM.
With `COc1cc(-c2cc(C(=O)N3CC[C@H](C(=O)NC4CCC(CO)(C(F)(F)F)CC4)CC34CC4)n[nH]2)c(F)cn1` (single isomer, unassigned) [Example 408-A], the AC50 in assay [1] stood at 4.5 nM. Besides, the IC50 in assay [2] was 3.9 nM.
Take `COc1cc(-c2cc(C(=O)N3CCC(C(=O)NC4COc5ccc(Cl)cc54)CC3)n[nH]2)c(Cl)cn1` (stereo not drawn) [Example 208, N-(5-chloro-2,3-dihydrobenzofuran-3-yl)-1-(5-(5-chloro-2-methoxypyridin-4-yl)-1H-pyrazole-3-carbonyl)piperidine-4-carboxamide]: the AC50 in assay [1] is 34.7 nM. Also, the IC50 in assay [2] (Homo sapiens, UM-UC-9, 144 h) is 290 nM.
The matching figures for `COc1cc(-c2cc(C(=O)N3CC[C@H](C(=O)NCc4ncccc4C)CC34CC4)n[nH]2)c(F)cn1` [Example 359, (S)-4-(5-(5-fluoro-2-methoxypyridin-4-yl)-1H-pyrazole-3-carbonyl)-N-((3-methylpyridin-2-yl)methyl)-4-azaspiro[2.5]octane-7-carboxamide]: 8 nM and 19.9 nM.
The like results for `COc1cc(-c2cc(C(=O)N3CC[C@H](C(=O)NCc4ncc(F)cc4C(F)(F)F)CC34CC4)n[nH]2)c(F)cn1` [Example 363, (S)-4-(5-(5-fluoro-2-methoxypyridin-4-yl)-1H-pyrazole-3-carbonyl)-N-((5-fluoro-3-(trifluoromethyl)pyridin-2-yl)methyl)-4-azaspiro[2.5]octane-7-carboxamide] were, in that order, 6 nM and 3.5 nM.
The matching figures for `COc1cc(-c2cc(C(=O)N3CC[C@H](C(=O)Nc4cnn5cc(C(C)=O)ccc45)CC34CC4)n[nH]2)c(F)cn1` [Example 494, (S)—N-(6-acetylpyrazolo[1,5-a]pyridin-3-yl)-4-(5-(5-fluoro-2-methoxypyridin-4-yl)-1H-pyrazole-3-carbonyl)-4-azaspiro[2.5]octane-7-carboxamide]: 6.7 nM and 80.8 nM.
With `COc1cc(-c2cc(C(=O)N3CC[C@H](C(=O)NCc4nccn4C(F)(F)F)CC34CC4)[nH]n2)c(F)cn1` [Example 519, (S)-4-(3-(5-fluoro-2-methoxypyridin-4-yl)-1H-pyrazole-5-carbonyl)-N-((1-(trifluoromethyl)-H-imidazol-2-yl)methy)-4-azaspiro[2.5]octane-7-carboxamide], the AC50 in assay [1] is 4.3 nM. Further, in assay [2] (Homo sapiens, UM-UC-9, 144 h), the IC50 came to 19.1 nM.
As for `COc1cc(-c2cc(C(=O)N3CC[C@H](C(=O)NC4CCN(CC(F)(F)CO)C4)CC34CC4)n[nH]2)c(F)cn1` (single isomer, unassigned) [Example 459-A], in assay [1], the AC50 stood at 8 nM. Besides, the IC50 in assay [2] was determined as 275 nM.
For the molecule `COc1cc(-c2cc(C(=O)N3CCC(C(=O)NC4CCC(C(F)(F)F)CC4)CC3)n[nH]2)c(Cl)cn1` (single isomer, unassigned) [Example 118-A], the AC50 in assay [1] (listed as 118a) turned out to be 15.5 nM. In assay [2] (listed as 118a), the IC50 was 116 nM.
As to `COc1cc(-c2cc(C(=O)N3CC[C@H](C(=O)NC45CC(CO)(C4)OC5C)CC34CC4)n[nH]2)c(F)cn1` (single isomer, unassigned) [Example 518-A], the AC50 in assay [1] turned out to be 130 nM. In assay [2], the IC50 stood at 3130 nM.
With `COc1cc(-c2cc(C(=O)N3CCC(C(=O)NCc4cccc5ccnn45)CC3)n[nH]2)c(Cl)cn1` [Example 137, 1-(5-(5-chloro-2-methoxypyridin-4-yl)-1H-pyrazole-3-carbonyl)-N-(pyrazolo[1,5-a]pyridin-7-ylmethyl)piperidine-4-carboxamide], the AC50 in assay [1] turned out to be 130 nM. In assay [2] (Homo sapiens, UM-UC-9, 144 h), the IC50 is 678 nM.
The matching figures for `COc1cc(-c2cc(C(=O)N3CC[C@H](C(=O)NCc4cn(C)nc4C(F)(F)F)CC34CC4)[nH]n2)c(F)cn1` [Example 509, (S)-4-(3-(5-fluoro-2-methoxypyridin-4-yl)-1H-pyrazole-5-carbonyl)-N-((1-methyl-3-(trifluoromethyl)-1H-pyrazol-4-yl)methyl)-4-azaspiro[2.5]octane-7-carboxamide]: 4.2 nM and 7 nM.
The like results for `COc1cc(-c2cc(C(=O)N3CC[C@H](C(=O)NCc4c(C(F)(F)F)cnn4C)CC34CC4)[nH]n2)c(F)cn1` [Example 507, (S)-4-(3-(5-fluoro-2-methoxypyridin-4-yl)-1H-pyrazole-5-carbonyl)-N-((1-methyl-4-(trifluoromethyl)-1H-pyrazol-5-yl)methyl)-4-azaspiro[2.5]octane-7-carboxamide] were, in that order, 17.4 nM and 14.1 nM.
As for `O=C(NC1CCC(O)(C(F)(F)F)CC1)C1CCN(C(=O)c2cc(-c3cc(Cl)ncc3F)[nH]n2)C2(CC2)C1` (single isomer, unassigned) [Example 529-B], the AC50 in assay [1] came out at 1.4 nM. Further, in assay [2], the IC50 was found to be 9.2 nM.
Consider `COc1cc(-c2cc(C(=O)N3CC[C@H](C(=O)NCC45CC(C4)N(CC(C)(C)F)C5)CC34CC4)n[nH]2)c(F)cn1` [Example 440, (S)-4-(5-(5-fluoro-2-methoxypyridin-4-yl)-1H-pyrazole-3-carbonyl)-N-((2-(2-fluoro-2-methylpropyl)-2-azabicyclo[2.1.1]hexan-4-yl)methyl)-4-azaspiro[2.5]octane-7-carboxamide], for which the AC50 in assay [1] is 410 nM. The IC50 in assay [2] (Homo sapiens, UM-UC-9, 144 h) was 927 nM.
The like results for `COc1cc(-c2cc(C(=O)N3CC[C@H](C(=O)NCC4(O)COC4)CC34CC4)[nH]n2)c(F)cn1` [Example 463, (S)-4-(3-(5-fluoro-2-methoxypyridin-4-yl)-1H-pyrazole-5-carbonyl)-N-((3-hydroxyoxetan-3-yl)methyl)-4-azaspiro[2.5]octane-7-carboxamide] were, in that order, 180 nM and 5200 nM.
The matching figures for `COc1cc(-c2cc(C(=O)N3CCC(C(=O)NCc4ccc(OC(F)F)cc4)CC3)n[nH]2)c(Cl)cn1` [Example 151, 1-(5-(5-chloro-2-methoxypyridin-4-yl)-1H-pyrazole-3-carbonyl)-N-(4-(difluoromethoxy)benzyl)piperidine-4-carboxamide]: 48.1 nM and 539 nM.
The like results for `COc1cc(-c2cc(C(=O)N3CCC(C(=O)NCc4ccc5oc(=O)n(C)c5c4)CC3)n[nH]2)c(Cl)cn1` [Example 228, 1-(5-(5-chloro-2-methoxypyridin-4-yl)-1H-pyrazole-3-carbonyl)-N-((3-methyl-2-oxo-2,3-dihydrobenzo[d]oxazol-5-yl)methyl)piperidine-4-carboxamide] were, in that order, 490 nM and more than 10000 nM.
